{"source": "PubChem BioAssay AID212", "about": "(DTP/NCI, 2004)", "test_system": "BDF1 mice, colon carcinoma 38 sc, T/C %", "assay": "NCI In Vivo Anticancer Drug Screen. Data for tumor model Colon Carcinoma 38 (subcutaneous) in B6D2F1 (BDF1) mice", "summary_of_the_method": "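Compound antitumor activity was assessed in mice carrying transplantable tumors. Survival or tumor size was recorded, and each value is the treated-group measurement divided by that of the vehicle-treated control group.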", "key": {"[1]": {"conditions": "endpoint: median tumor weight (est.), dose: 12.5 mg/kg/injection, schedule: Q07DX002 (ip), vehicle: saline, higher = larger tumour"}, "[2]": {"conditions": "endpoint: median tumor weight (est.), dose: 25.0 mg/kg/injection, schedule: Q07DX002 (ip), vehicle: saline, higher = larger tumour"}, "[3]": {"conditions": "endpoint: median tumor weight (est.), dose: 50.0 mg/kg/injection, schedule: Q07DX002 (ip), vehicle: saline, higher = larger tumour"}}, "note": "“And” between values parts separate entries of the source, which are not always exact repeats. Equal entries are not always repeated. Records with an inconclusive call do not appear."}
{"smiles": "COc1cccc2c1C(=O)c1c(O)c3c(c(O)c1C2=O)C[C@@](O)(C(C)=O)C[C@@H]3OC1CC(N(Cc2ccccc2)Cc2ccccc2)C(O)C(C)O1", "note": "(some centres undefined)", "values": [{"measurement": "T/C", "setting": "endpoint: median survival time, dose: 43.0 mg/kg/injection, schedule: Q07DX003 (sc), vehicle: saline with Tween-80, higher = longer survival", "value": "152 % of control"}, {"measurement": "T/C", "setting": "endpoint: median survival time, dose: 69.0 mg/kg/injection, schedule: Q07DX003 (sc), vehicle: saline with Tween-80, higher = longer survival", "value": "170 % of control"}, {"measurement": "T/C", "setting": "endpoint: median survival time, dose: 112.0 mg/kg/injection, schedule: Q07DX003 (sc), vehicle: saline with Tween-80, higher = longer survival", "value": "220 % of control"}, {"measurement": "T/C", "setting": "endpoint: median survival time, dose: 180.0 mg/kg/injection, schedule: Q07DX003 (sc), vehicle: saline with Tween-80, higher = longer survival", "value": "254 % of control"}, {"measurement": "T/C", "setting": "endpoint: median tumor weight (est.), dose: 6.75 mg/kg/injection, schedule: Q07DX002 (ip), vehicle: distilled water + Tween-80, higher = larger tumour", "value": "108 % of control"}, {"measurement": "T/C", "setting": "endpoint: median tumor weight (est.), dose: 13.5 mg/kg/injection, schedule: Q07DX002 (ip), vehicle: distilled water + Tween-80, higher = larger tumour", "value": "57 % of control"}, {"measurement": "T/C", "setting": "endpoint: median tumor weight (est.), dose: 27.0 mg/kg/injection, schedule: Q07DX002 (ip), vehicle: distilled water + Tween-80, higher = larger tumour", "value": "13 % of control"}, {"measurement": "T/C", "setting": "endpoint: median tumor weight (est.), dose: 27.0 mg/kg/injection, schedule: Q07DX002 (ip), vehicle: saline with Tween-80, higher = larger tumour", "value": "39 % of control and 50 % of control"}, {"measurement": "T/C", "setting": "endpoint: median tumor weight (est.), dose: 54.0 mg/kg/injection, schedule: Q07DX002 (ip), vehicle: saline with Tween-80, higher = larger tumour", "value": "8 % of control"}, {"measurement": "T/C", "setting": "endpoint: median tumor weight (est.), dose: 108.0 mg/kg/injection, schedule: Q07DX002 (ip), vehicle: saline with Tween-80, higher = larger tumour", "value": "3 % of control"}]}
{"smiles": "NC(C/[N+]([O-])=N/O)C(=O)O", "note": "(centres undefined)", "values": [{"measurement": "T/C", "setting": "endpoint: median survival time, dose: 52.7 mg/kg/injection, schedule: Q04DX005 (ip), vehicle: alkali diluted with saline, higher = longer survival", "value": "109 % of control"}, {"measurement": "T/C", "setting": "endpoint: median survival time, dose: 79.0 mg/kg/injection, schedule: Q04DX005 (ip), vehicle: alkali diluted with saline, higher = longer survival", "value": "86 % of control and 88 % of control"}, {"measurement": "T/C", "setting": "endpoint: median survival time, dose: 119.0 mg/kg/injection, schedule: Q04DX005 (ip), vehicle: alkali diluted with saline, higher = longer survival", "value": "109 % of control and 116 % of control"}, {"measurement": "T/C", "setting": "endpoint: median survival time, dose: 178.0 mg/kg/injection, schedule: Q04DX005 (ip), vehicle: alkali diluted with saline, higher = longer survival", "value": "100 % of control and 102 % of control"}, {"measurement": "T/C", "setting": "endpoint: median survival time, dose: 267.0 mg/kg/injection, schedule: Q04DX005 (ip), vehicle: alkali diluted with saline, higher = longer survival", "value": "93 % of control and 94 % of control"}, {"measurement": "T/C", "setting": "endpoint: median survival time, dose: 400.0 mg/kg/injection, schedule: Q04DX005 (ip), vehicle: alkali diluted with saline, higher = longer survival", "value": "95 % of control"}, {"measurement": "T/C", "setting": "endpoint: median survival time, dose: 600.0 mg/kg/injection, schedule: Q04DX005 (ip), vehicle: alkali diluted with saline, higher = longer survival", "value": "79 % of control"}, {"measurement": "T/C", "setting": "endpoint: median tumor weight (est.), dose: 32.0 mg/kg/injection, schedule: Q07DX003 (ip), vehicle: saline, higher = larger tumour", "value": "108 % of control"}, {"measurement": "T/C", "setting": "endpoint: median tumor weight (est.), dose: 64.0 mg/kg/injection, schedule: Q07DX003 (ip), vehicle: saline, higher = larger tumour", "value": "70 % of control"}, {"measurement": "T/C", "setting": "endpoint: median tumor weight (est.), dose: 128.0 mg/kg/injection, schedule: Q07DX003 (ip), vehicle: saline, higher = larger tumour", "value": "92 % of control"}, {"measurement": "T/C", "setting": "endpoint: median tumor weight (est.), dose: 256.0 mg/kg/injection, schedule: Q07DX003 (ip), vehicle: saline, higher = larger tumour", "value": "100 % of control"}, {"measurement": "T/C", "setting": "endpoint: median tumor weight (est.), dose: 512.0 mg/kg/injection, schedule: Q07DX003 (ip), vehicle: saline, higher = larger tumour", "value": "56 % of control"}, {"measurement": "T/C", "setting": "endpoint: median tumor weight (est.), dose: 1024.0 mg/kg/injection, schedule: Q07DX003 (ip), vehicle: saline, higher = larger tumour", "value": "72 % of control"}]}
{"smiles": "O=C1c2ccccc2C(=O)c2c(NCCNCCO)ccc(O)c21", "values": [{"measurement": "T/C", "setting": "endpoint: median tumor weight (est.), dose: 5.0 mg/kg/injection, schedule: Q07DX002 (ip), vehicle: suspension in saline, higher = larger tumour", "value": "79 % of control and 95 % of control"}, {"measurement": "T/C", "setting": "endpoint: median tumor weight (est.), dose: 10.0 mg/kg/injection, schedule: Q07DX002 (ip), vehicle: suspension in saline, higher = larger tumour", "value": "94 % of control and 99 % of control"}, {"measurement": "T/C", "setting": "endpoint: median tumor weight (est.), dose: 40.0 mg/kg/injection, schedule: Q07DX002 (ip), vehicle: suspension in saline, higher = larger tumour", "value": "90 % of control and 96 % of control and 106 % of control"}, {"measurement": "T/C", "setting": "endpoint: median tumor weight (est.), dose: 320.0 mg/kg/injection, schedule: Q07DX002 (ip), vehicle: suspension in saline, higher = larger tumour", "value": "74 % of control"}]}
{"smiles": "CSC(SC)=C1C(=O)NC(=O)NC1=O", "values": [{"measurement": "T/C", "setting": "endpoint: median tumor weight (est.), dose: 6.25 mg/kg/injection, schedule: Q07DX002 (ip), vehicle: saline, higher = larger tumour", "value": "85 % of control"}, {"measurement": "T/C", "setting": "[1]", "value": "70 % of control"}, {"measurement": "T/C", "setting": "[2]", "value": "83 % of control"}, {"measurement": "T/C", "setting": "[3]", "value": "45 % of control"}]}
{"smiles": "CCN(CC)CCOCc1cccc2c(=O)cc(-c3ccccc3)oc12", "values": [{"measurement": "T/C", "setting": "endpoint: median tumor weight (est.), dose: 50.0 mg/kg/injection, schedule: Q07DX002 (ip), vehicle: Klucel (hydroxypropylcellulose) (HPC), higher = larger tumour", "value": "66 % of control"}, {"measurement": "T/C", "setting": "endpoint: median tumor weight (est.), dose: 100.0 mg/kg/injection, schedule: Q07DX002 (ip), vehicle: Klucel (hydroxypropylcellulose) (HPC), higher = larger tumour", "value": "57 % of control"}]}
{"smiles": "Cn1cnc([N+](=O)[O-])c1SCC(=O)O", "values": [{"measurement": "T/C", "setting": "[1]", "value": "65 % of control"}, {"measurement": "T/C", "setting": "[2]", "value": "62 % of control"}, {"measurement": "T/C", "setting": "[3]", "value": "67 % of control"}, {"measurement": "T/C", "setting": "endpoint: median tumor weight (est.), dose: 100.0 mg/kg/injection, schedule: Q07DX002 (ip), vehicle: saline, higher = larger tumour", "value": "99 % of control"}, {"measurement": "T/C", "setting": "endpoint: median tumor weight (est.), dose: 112.5 mg/kg/injection, schedule: Q07DX002 (ip), vehicle: saline, higher = larger tumour", "value": "111 % of control"}, {"measurement": "T/C", "setting": "endpoint: median tumor weight (est.), dose: 200.0 mg/kg/injection, schedule: Q07DX002 (ip), vehicle: saline, higher = larger tumour", "value": "94 % of control"}, {"measurement": "T/C", "setting": "endpoint: median tumor weight (est.), dose: 225.0 mg/kg/injection, schedule: Q07DX002 (ip), vehicle: saline, higher = larger tumour", "value": "85 % of control"}, {"measurement": "T/C", "setting": "endpoint: median tumor weight (est.), dose: 400.0 mg/kg/injection, schedule: Q07DX002 (ip), vehicle: saline, higher = larger tumour", "value": "100 % of control"}, {"measurement": "T/C", "setting": "endpoint: median tumor weight (est.), dose: 450.0 mg/kg/injection, schedule: Q07DX002 (ip), vehicle: saline, higher = larger tumour", "value": "163 % of control"}, {"measurement": "T/C", "setting": "endpoint: median tumor weight (est.), dose: 900.0 mg/kg/injection, schedule: Q07DX002 (ip), vehicle: saline, higher = larger tumour", "value": "59 % of control"}, {"measurement": "T/C", "setting": "endpoint: median tumor weight (est.), dose: 1800.0 mg/kg/injection, schedule: Q07DX002 (ip), vehicle: saline, higher = larger tumour", "value": "101 % of control"}]}
